# Results: PubChem BioAssay (NCI)
#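 Step 1: Grow cells in 96-well plates. Step 2: Expose to compound for 48 hours at 5 concentrations. Step 3: Interpolate endpoints linearly; if unreached, use highest concentration. GI50 marks 50% less growth. The concentration for full growth arrest is given as TGI.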
# How the values were obtained:
# Assay in all cases: NCI-60 cell line screen, 48 h
# [1] = system: MCF7 breast
# [2] = system: PC-3 prostate
# [3] = system: SF-539 CNS
# [4] = system: SK-OV-3 ovarian
# [5] = system: SNB-75 CNS
# [6] = system: T-47D breast
# [7] = system: 786-0 renal
# [8] = system: DLD-1 colon
# [9] = system: DMS 114 small cell lung
# [10] = system: DMS 273 small cell lung
# [11] = system: KM20L2 colon
# [12] = system: LXFL 529 NSCLC
# [13] = system: XF 498 CNS
# [14] = system: M19-MEL melanoma
Compound,TGI [1],TGI [2],TGI [3],TGI [4],TGI [5],TGI [6],TGI [7],GI50 [1],GI50 [2],GI50 [3],GI50 [4],GI50 [5],GI50 [6],TGI [8],TGI [9],TGI [10],TGI [11],TGI [12],TGI [13],TGI [14]
CCN(CCO)C(=O)C1(c2ccccc2)CCCCC1,> 10 µM,> 10 µM,> 10 µM,> 10 µM,> 10 µM,> 10 µM,–,–,–,–,–,–,–,–,–,–,–,–,–,–
Ic1ccc2c(c1)N(c1ccccc1)c1cc(N=c3ccc4nc5ccc(I)cc5n(-c5ccccc5)c-4c3)ccc1N2,> 100 µM,> 100 µM,> 100 µM,> 100 µM,> 100 µM,> 100 µM,> 100 µM,–,–,–,–,–,–,–,–,–,–,–,–,–
OCCCNc1nc(=S)[nH]c2[nH]ncc12,81.3 µM,> 100 µM,> 100 µM,> 100 µM,> 100 µM,> 100 µM,–,29.8 µM,70.2 µM,23.3 µM,48.7 µM,> 100 µM,45 µM,–,–,–,–,–,–,–
CC(CCC(=O)O)(c1ccc(O)cc1)c1ccc(O)cc1,–,> 100 µM,–,–,–,> 100 µM,> 100 µM,–,–,–,–,–,–,–,–,–,–,–,–,–
C[N+](C)(C)CCCSc1nc2ccccc2[nH]1,> 100 µM,> 100 µM,–,> 100 µM,–,> 100 µM,> 100 µM,–,–,–,–,–,–,–,–,–,–,–,–,–
O=S(=O)(O)C1=C2Sc3ccccc3N=C2c2ccccc2C1,–,–,24.4 µM,44.1 µM,32.5 µM,–,31.4 µM,–,–,–,–,–,–,32.5 µM,22.2 µM,29.5 µM,34.3 µM,24.6 µM,31.8 µM,–
COc1ccc(CC2CCc3nc(N)nc(N)c3C2)cc1OC (configuration not stated),> 44.4 µM,> 100 µM,> 40.5 µM,> 100 µM,> 100 µM,> 82.6 µM,–,–,–,–,–,–,–,–,–,–,–,–,–,–
c1nc(N2CC2)c2cnn(C3CCCCO3)c2n1 (configuration not stated),> 100 µM,> 100 µM,> 100 µM,> 100 µM,> 100 µM,> 100 µM,> 100 µM,–,–,–,–,–,–,> 100 µM,> 100 µM,> 100 µM,> 100 µM,> 100 µM,> 100 µM,> 100 µM
CN(CCC(=O)O)C1=Nc2ccc(Cl)cc2C(c2ccccc2)=[N+]([O-])C1,> 100 µM,> 100 µM,> 100 µM,> 100 µM,> 100 µM,> 100 µM,> 100 µM,–,–,–,–,–,–,–,–,–,–,–,–,–
CCOC(=O)NC(=O)c1cn(CCNCCO)c(=O)[nH]c1=O,–,–,> 100 µM,> 100 µM,> 100 µM,–,–,–,–,–,–,–,–,> 100 µM,> 100 µM,–,–,> 100 µM,> 100 µM,> 100 µM
O=C(N/N=C/C=C/c1ccccc1)[C@H](O)[C@@H](O)C(=O)N/N=C/C=C/c1ccccc1,–,–,> 100 µM,–,–,–,–,–,–,–,–,–,–,> 100 µM,> 100 µM,> 100 µM,> 100 µM,> 100 µM,–,> 100 µM
C[C@]12CC[C@H](OC(=O)Cc3ccc(N(CCCl)CCCl)cc3)CC1=CC[C@@H]1[C@@H]2CC[C@]2(C)C(=O)CC[C@@H]12,> 100 µM,> 100 µM,> 100 µM,–,> 100 µM,> 100 µM,–,–,–,–,–,–,–,–,–,–,–,–,–,–
CN1CCN(c2ccc3[nH]c(-c4cc(O)c5c(nc(CO)n5C)c4O)nc3n2)CC1,–,> 100 µM,44 µM,> 100 µM,> 100 µM,> 100 µM,> 100 µM,–,–,–,–,–,–,–,–,–,–,–,–,–
O=C(O)CCC(=O)Nc1ccc2ccccc2c1,> 100 µM,> 100 µM,–,> 100 µM,> 100 µM,> 100 µM,> 100 µM,–,–,–,–,–,–,–,–,–,–,–,–,–
